PubChem BioAssay AID463204 (Broad Institute, 2010)
The source made the active and inactive calls.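 How the source made its calls: active means AC50 no more than ten times the top concentration tested, that is within one log above it; inconclusive means flat curve fit with activity between 30% and 70%, or invalid poor fit; inactive means AC50 beyond ten times the top tested dose.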

These compounds were tested on S. cerevisiae Mot1-301 ts growth rescue, BacTiter-Glo ATP luminescence (assay: growth rescue of Mot1-301 ts yeast, confirmation, SUMOylation pathway inhibitor project, whole organism, S. cerevisiae, Mot1-301 ts mutant, luminescence, dose retest (AID 463204);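 further: growth at restrictive 38.5 degrees C of Mot1-301 OY566 strain; actives raise luminescence by restoring growth of the ts mutant at high temperature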).

SMILES | AC50
Cc1ccc(CC2CC(=O)N(c3ccc4c(c3)OCCO4)C2=O)cc1 (centres undefined) | > 42 µM (inactive)
CCN(CC)c1ccc2c(C)c(CN3CCOCC3)c(=O)oc2c1 | > 42 µM (inactive)
CN(C)c1ccnc2sc3c(NCC(O)CO)ncnc3c12 (centres undefined) | > 42 µM (inactive)
CCN(CC)CCCN1C(=O)C(=O)/C(=C(/O)c2ccccc2)C1c1cc(OC)ccc1OC (centres undefined) | > 42 µM (inactive)
COc1nc(OC)nc(N2CCC(C(=O)NC3CCCCCC3)CC2)n1 | > 42 µM (inactive)
O=C(O)c1ccc(/C=N/NC(=O)c2cc(-c3ccc4c5c(cccc35)CC4)n[nH]2)cc1 | > 42 µM (inactive)
CCOC(=O)C1=C(C)NC(=O)CC1c1cc2c(cc1[N+](=O)[O-])OCO2 (centres undefined) | > 42 µM (inactive)
CC1CCN(CCNC(=O)C2CCCN(S(=O)(=O)c3cccc4nsnc34)C2)CC1 (centres undefined) | > 42 µM (inactive)
Cc1cc(C)cc(N2C(=O)CC(Sc3ncn[nH]3)C2=O)c1 (centres undefined) | 1.92 µM
Nc1cc(Cl)ccc1N1CCOCC1 | > 42 µM (inactive)
Cc1cc(C)cc(OCC(=O)NC2CCCc3ccccc32)c1 (centres undefined) | > 42 µM (inactive)
CC(C)CCn1c(C(C)O)nc2ccccc21 (centres undefined) | > 42 µM (inactive)
Cc1nc(N/N=C\c2ccc3c(c2)OCO3)sc1C | 33.5 µM
O=C1CN(C(=O)COC(=O)c2cccc(S(=O)(=O)NCc3ccccc3)c2)c2ccccc2N1 | > 42 µM (inactive)
COc1ccc(S(=O)(=O)NC(C)C(=O)NCc2ccccn2)cc1Cl (centres undefined) | > 42 µM (inactive)
Cc1ccc(NC(=O)CCS(=O)(=O)c2ccc3nc(C)sc3c2)cc1 | > 42 µM (inactive)
CCOc1ncccc1C(=O)OCC(=O)N(CC)c1ccccc1 | > 42 µM (inactive)
CCOC(=O)Cn1c(=O)oc2cc(S(=O)(=O)NC(C)(C)CC)ccc21 | > 42 µM (inactive)
Cc1ccc2cccc(OCc3nnc(SCC(=O)O)n3C)c2n1 | > 42 µM (inactive)
CCOC(=O)C1C(=O)NC(SCC(=O)Nc2nccs2)=C(C#N)C1c1ccccc1OCC (centres undefined) | > 42 µM (inactive)
Cc1cccc(OCCN2CSC(=S)N(C)C2)c1 | 3.7 µM
COc1ccccc1/C=C/C(=O)NC(=S)N1CCOCC1 | > 42 µM (inactive)
Cn1c(=O)c2c(ncn2CC(=O)N2CCCCCC2)n(C)c1=O | > 42 µM (inactive)
CCCCC(=O)Nc1nnc(/C=C/c2ccc(OC)cc2)s1 | > 42 µM (inactive)
OCCN1CN=C(Nc2nc3ccccc3o2)NC1 | > 42 µM (inactive)
CC(NC(=O)C1CCCCC1)C(=O)NC1=NCCS1 (centres undefined) | > 42 µM (inactive)

SMILES | AC50
Cc1ccnc(NC(=O)c2ccc(Br)s2)c1 | > 42 µM (inactive)
Cc1ccccc1NC1=NCCCS1 | > 42 µM (inactive)
COc1ccc(N2C(=O)CC(NCc3cccs3)C2=O)cc1 (centres undefined) | > 42 µM (inactive)
Nc1nc(-c2ccc(Cl)cc2)nc(-c2ccc(Cl)cc2)n1 | > 42 µM (inactive)
O=C(CCc1ccccc1)NNC(=S)Nc1ccc(F)cc1 | > 42 µM (inactive)
O=C(C1CCC(CNc2c(N3CCCCC3)c(=O)c2=O)CC1)N1CCN(C2CCCCC2)CC1 (centres undefined) | > 42 µM (inactive)
Cc1cc(C)cc(NC(=O)C2CCCN(S(=O)(=O)c3ccc4[nH]c(=O)ccc4c3)C2)c1 (centres undefined) | > 42 µM (inactive)
O=C(c1ccc([N+](=O)[O-])cc1)N1CCN(c2ncc(Br)cn2)CC1 | > 42 µM (inactive)
Clc1cc(Br)ccc1OCCOCCN1CCOCC1 | > 42 µM (inactive)
CCOC(=O)c1cnc2oc3ccccc3n2c1=O | > 42 µM (inactive)
CCC(=O)N1CCc2cc(S(=O)(=O)CCC(=O)Nc3cccc(C)n3)ccc21 | > 42 µM (inactive)
CC(C)C[C@@H](CO)N1CCN(Cc2cccnc2)CCC1=O | > 42 µM (inactive)
COc1ccccc1NC(=S)N(Cc1ccco1)Cc1cc2cccc(C)c2[nH]c1=O | > 42 µM (inactive)
Cc1cc([N+](=O)[O-])nn1CC(=O)NNC(=S)Nc1ccc([N+](=O)[O-])cc1 | > 42 µM (inactive)
COc1ccc(S(=O)(=O)N2CCOC2CNC(=O)C(=O)NCc2ccncc2)cc1C (centres undefined) | > 42 µM (inactive)
CCOC(=O)c1cnc2c(C)c(Cl)ccc2c1N1CCOCC1 | > 42 µM (inactive)
COc1cccc(-c2nn(-c3ccccc3)cc2/C=C(/NC(=O)c2ccccc2)C(=O)O)c1 | > 42 µM (inactive)
O=C(CCSc1nnnn1-c1ccccc1)N1CCOCC1 | > 42 µM (inactive)
CCOc1ccc2nc(CN3CCN(Cc4ccccc4OCC)C(CCO)C3)ccc2c1 (centres undefined) | > 42 µM (inactive)
CN(C)/C=N/NC(=O)c1ccccc1 | > 42 µM (inactive)
COc1cccc(NC(=S)NC(=O)c2cncc(Br)c2)c1 | > 42 µM (inactive)
Cc1ccc(C2=NN(CC(=O)NCc3cccs3)C(=O)CC2)cc1 | > 42 µM (inactive)
COC(=O)c1ccc(N2C(=O)CC(NCc3ccccc3)C2=O)cc1 (centres undefined) | > 42 µM (inactive)
CN(C)CC/C=C1/c2cc(F)ccc2Sc2ccc(Cl)cc21 | > 42 µM (inactive)
CC(=O)Nc1ccc(-c2csc(NC(=O)C3CC(=O)N(c4ccc5c(c4)OCCO5)C3)n2)cc1 (centres undefined) | > 42 µM (inactive)
Cc1cc(C)cc(C(=O)N2CCC3(CC2)NCCc2[nH]cnc23)c1 | > 42 µM (inactive)

SMILES | AC50
COc1ccc(Cc2nnc(NCCO)[nH]c2=O)cc1 | > 42 µM (inactive)
OC1CN=C2CCCc3c2n(c2ccc(Cl)cc32)C1 (centres undefined) | > 42 µM (inactive)
COc1cc(/C=N/n2cnnc2)ccc1OCc1ccccc1 | > 42 µM (inactive)
O=S(=O)(NCc1cccc(C(F)(F)F)c1)NCc1ccccc1F | > 42 µM (inactive)
CCc1ccc(NC(=S)N(Cc2cccc(Br)c2)CC2CCC(C(=O)O)CC2)cc1 (centres undefined) | > 42 µM (inactive)
CS(=O)(=O)c1ccc(Cl)c(NC(=O)c2ccc3ccccc3c2)c1 | > 42 µM (inactive)
O=c1[nH]cnc2ccc([N+](=O)[O-])cc12 | > 42 µM (inactive)
CCOc1ccc(C(=O)NNC2CC(=O)N(CCc3ccccc3)C2=O)cc1OC (centres undefined) | > 42 µM (inactive)
COc1cc(C(c2c(C)[nH][nH]c2=O)c2c(C)[nH][nH]c2=O)cc(OC)c1OC | > 42 µM (inactive)
CCN1C(=S)N[C@@H](CCc2ccccc2)C(C(=O)OC)=C1C | > 42 µM (inactive)
Cc1ccc(C(C(=O)Nc2ccc3c(c2)OCO3)N(C)C(=O)/C=C\c2ccc3c(c2)OCO3)cc1 (centres undefined) | > 42 µM (inactive)
COc1ccc(/C=C(/C#N)S(=O)(=O)c2ccc(C)cc2)cc1 | > 21 µM (inactive)
COc1ccc(-c2cc(C(=O)Nc3cc(C)ccc3O)no2)cc1 | > 42 µM (inactive)
O=S(=O)(NCc1ccc(Cl)cc1)c1cnc[nH]1 | > 42 µM (inactive)
O=C(O)CCc1ccc(-c2ccccc2)n1NC(=O)c1cccs1 | > 42 µM (inactive)
COc1cc(NC(=O)CN2CCN(CC(=O)Nc3ccccc3OC)CC2)cc(OC)c1 | > 42 µM (inactive)
O=C(NCC1CCN(Cc2ccccc2Cl)CC1)Nc1ccccc1F | > 42 µM (inactive)
CN1C(=O)NC(=O)[C@]2(Cc3ccccc3N3CCN(c4ccccc4)CC32)C1=O (some centres undefined) | > 42 µM (inactive)
N#CCN(N=Nc1ccccc1)c1ccccc1 | > 42 µM (inactive)
O=S(=O)(c1ccc(C2CCCCC2)cc1)N1CCCC1 | > 42 µM (inactive)
Cc1cc(C)c2cc(C)c3nnc(SCC(=O)NCc4ccc5c(c4)OCO5)n3c2c1 | > 42 µM (inactive)
Cc1cc(C)n2nc(SCC(=O)NC3CCCC(C)C3C)nc2n1 (centres undefined) | > 42 µM (inactive)
COc1ccccc1CC(=O)N1CCOCC1 | > 42 µM (inactive)
COc1cccc(/C=N/NC(=O)CNC(=O)c2ccco2)c1O | > 42 µM (inactive)
COc1ccc(/C=C(\C#N)C(=O)c2cccn2C)cc1 | > 42 µM (inactive)
O=c1c2c(ncn1Cc1ccccc1)nc1n2CCC1 | > 42 µM (inactive)

SMILES | AC50
Cc1ccc(C(C(=O)NCC2CCCO2)N(Cc2ccccc2F)C(=O)Cn2nnc(-c3cccs3)n2)cc1 (centres undefined) | > 42 µM (inactive)
CCOc1ccccc1N(C(=O)c1snc(C(N)=O)c1N)C(CC)C(=O)NC1CCCC1 (centres undefined) | 41.7 µM
CN1C(=S)SC2CS(=O)(=O)CC21C (centres undefined) | > 21 µM (inactive)
CCOP(=O)(Cc1cc(C(=O)CC)c(C)o1)OCC | > 42 µM (inactive)
Cc1nc2ccccc2c2ncccc12 | > 42 µM (inactive)
CC1CC(c2ccccc2)NS(=O)(=O)O1 (centres undefined) | > 42 µM (inactive)
COCCNCc1ccccc1 | > 42 µM (inactive)
Fc1ccc(-c2n[nH]c(=S)n2CC2CCCO2)cc1 (centres undefined) | > 42 µM (inactive)
CCc1cc(/C(Cc2ccccn2)=N\O)c(O)cc1O | > 42 µM (inactive)
COCCn1c(N)c(N(Cc2ccccc2)C(=O)CN2C(=O)NC(C)(c3ccccc3)C2=O)c(=O)[nH]c1=O (centres undefined) | > 42 µM (inactive)
Cc1ccc(N=c2ssnc2Cl)cc1 | 3.13 µM
COc1cc2nc(CSc3ncn[nH]3)[nH]c(=O)c2cc1OC | > 42 µM (inactive)
CCCCNS(=O)(=O)c1ccc2c(c1)oc(=O)n2CC(=O)OCC | > 42 µM (inactive)
CS(=O)(=O)N(CC(=O)N1CCCC1)c1cccc(Cl)c1Cl | > 42 µM (inactive)
Cc1ccc(SCC(=O)O/N=C(\N)c2cccc([N+](=O)[O-])c2)cc1 | > 42 µM (inactive)
Clc1ccccc1-c1ccc2ncnc(NCc3cccs3)c2c1 | 37 µM
COc1ccc(-n2c(SCC(=O)NCC3CCCO3)nc3c(c2=O)SCC3)cc1OC (centres undefined) | > 42 µM (inactive)
Cc1nn(-c2ccccc2)c(N)c1N=Nc1cccc(S(=O)(=O)N2CCOCC2)c1 | > 42 µM (inactive)
O=C(c1cn(-c2ccccc2)nc1-c1cccs1)N1CCOCC1 | > 42 µM (inactive)
CC1(C)CNc2cc([N+](=O)[O-])ccc2S1 | 27.7 µM
O=C(O)C1C2CCC(O2)C1C(=O)NCCC1=CCCCC1 (centres undefined) | > 42 µM (inactive)
CC1(C)CC(=O)C=C(OC(=O)c2ccc(Cl)cc2)C1 | > 42 µM (inactive)
Oc1c(Br)cc(Cl)cc1C=Nc1ccccc1Br | 4.15 µM
O=C(O)c1cn(Cc2ccccn2)c(=O)c2ccccc12 | > 42 µM (inactive)
CN=C1SC(CC(=O)Nc2sc3c(c2C#N)CCCC3)C(=O)N1C (centres undefined) | > 42 µM (inactive)
O=C(NCc1cccnc1)Nc1ccccc1 | > 42 µM (inactive)
